Results on four compounds are retold here after patent US20160374967A1, “ORGANIC THIOPHOSPHATE ANTIRETROVIRAL AGENTS” (The Government of the U.S.A., as Represented by the …, priority 2006, published 2016).

As a reminder, the inhibition is the percentage by which the read-out fell short of the control.

Each structure is given as a SMILES string. Where two headings read alike, the source gives them in different places.

For series [1] the following is noted: mice, cited from earlier work.
The conditions of series [2]: in vivo; cited from earlier work.
For another series, the system named is HIV-1BZ-167. The series can be described thus: HIV-1 replication in PHA-blasts by p24 ELISA, dose-response and combinations. It is filed as cell-based. The settings on record: for IC50: n=3, read-out: 50% Inhibition of virus replication. A general note: ELISA stands for enzyme-linked immunosorbent assay.
The conditions of series [3]: cited from earlier work.
The conditions of series [4]: mouse, in vivo; cited from earlier work.
Series [5] concerns PHA-blasts. The conditions noted are these: human, 72 h.
Series [6] deals with HIV. Kind of series: microbe, parasite or virus in culture. The settings on record: for duration of action (anti-HIV, cell culture): cysteamine re-added every 12 hours, WR-1065 added once in 72 hour period. It is filed as cell-based.
Another series has as its system PHA blasts. Kind of series: Viability of PHA blasts exposed to WR-1065 (no HIV), 72 h. It counts as cell-based, human.
For series [7] the following is noted: rhesus macaques, duodenal 150 mg/kg BW of amifostine or phosphonol, cited from earlier work.
In series [8] the test system is PHA-blasts. The series can be described thus: Cell survival (cytotoxicity) by trypan blue in HIV-1 infected PHA-blasts.
A further series has as its system adenovirus. The series can be described thus: Antiviral efficacy against adenovirus. The conditions noted are these: three different species of adenovirus.
For series [9], the system named is HIV. It counts as cell-based. The settings on record: human T-lymphocytes.
For another series, the system named is TK6 cells. The series can be described thus: 14-day survival of TK6 cells in continuous presence of WR-1065. It is filed as cell-based, human.
The mark [10] stands for this setting: metabolite after amifostine injection at 500-910 mg/m^2.
Setting [11] is: metabolite after amifostine injection.

`NCCCNCCSP(=O)(O)O` [Amifostine, S-2-(3-aminopropyl)aminoethyl phosphorothioic acid]: the “maximally tolerated dose (MTD)” value in series [1] (i.p.) is 432 mg/kg BW; in series [1] (p.o.) it was 720 mg/kg BW. Also, in [2], the “effects of single doses of up to 2700 mg/m^2” value was “no untoward effects”. For the same compound, in the series with HIV-1BZ-167 (Human immunodeficiency virus 1, 50 μM amifostine (with alkaline phosphatase), mean±SE, n=4), the inhibition at 50 µM amounted to 75.4 ± 8.3%. In addition, in [3] (in vivo), the “plasma T1/2” value was approximately 0.167 h. Moreover, in [4], the “100% effective radioprotective dose” value is “about one half of the MTD”. The compound also displayed a cell survival with PHA-blasts [5] (50 μM) of 53±10%.
For `NCCS` [Cysteamine, reference compound], the “suppression of HIV replication” value in the series with HIV [6] (200 μM) was approximately 100%. Besides, the “duration of action (anti-HIV, cell culture)” value in the series on HIV [6] is given as “very short”.
Turning to `NCCCNCCS` [WR-1065, 2-(3-aminopropylamino)ethanethiol], the “% Viable Cells (compared to control)” value was determined as 83% with PHA blasts (1 μM); 82% in the series on PHA blasts (5 μM); 90% with PHA blasts (10 μM); 89% in the series on PHA blasts (50 μM); 63% in the series on PHA blasts (100 μM); 73% in the series on PHA blasts (500 μM). Moreover, in the series with PHA blasts (1000 μM), the “% Viable Cells (compared to control)” value came to 30%. Moreover, the antiviral efficacy result with influenza and in the series on adenovirus was “has antiviral efficacy” throughout. Besides, the “Concentration (μg/ml), plasma” value was 6.21 µg/mL in series [7] (1 h after administration), 4.14 µg/mL in series [7] (2 h after administration) and 2.07 µg/mL in series [7] (6 h after administration). Further, the cell survival came out at 37% in the series on PHA-blasts [8] (26 μM WR-1065); 55±22% in the series on PHA-blasts [8] (50 μM WR-1065); 49% with PHA-blasts [8] (52 μM WR-1065); 42±18% in the series with PHA-blasts [8] (100 μM WR-1065); 78% in the series with PHA-blasts [8] (103 μM WR-1065). In addition, the “in vitro anti-HIV potency relative to cysteamine” value with HIV [6] is 2 fold. In addition, the “HIV inhibition in human PBMCs (in words)” value in the series on HIV [6] (Experiment #1, 1000 μM) is “inhibits HIV completely”. Besides, the “HIV Viral P24” value with HIV [6] (Experiment #1, 1000 μM WR-1065, 72 h) came out at 0.13 pg/mL; with HIV [6] (Experiment #2, 100 μM WR-1065, 72 h), 8.92 pg/mL; with HIV [6] (Experiment #2, 330 μM WR-1065, 72 h) it was 9.31 pg/mL; with HIV [6] (Experiment #2, 1000 μM WR-1065, 72 h), 8.92 pg/mL; with HIV [6] (Experiment #3, 10 μM WR-1065, 72 h) it was 911.2 pg/mL; in the series on HIV [6] (Experiment #3, 33 μM WR-1065, 72 h) it was 503.2 pg/mL. The “HIV Viral P24” value in the series on HIV [6] (Experiment #3, 66 μM WR-1065, 72 h) is 33.2 pg/mL. In addition, in the series with HIV [6] (Experiment #1, 1000 μM WR-1065 with 10 μM AZT), the “influence on the effect of 10 μM AZT” value is “does not appear to alter”. In addition, the “HIV infection inhibition in human PBMCs (in words)” value in the series on HIV [6] (Experiment #2, concentrations as low as 100 μM) was “inhibit HIV infection completely”. Also, the “HIV Viral P24 pg/ml” value in the series with HIV [6] (Experiment #3, 5 μM WR-1065, 72 h) is listed as 10,293.7 pg/ml. In addition, the inhibition at 1000 µM was approximately 100% in the series on HIV [6] (Human immunodeficiency virus 1, PBMC, 72 h, Experiment #1, 1000 μM WR-1065, 72 h, read-out: Estimated percent inhibition) and 94.9% with HIV [6] (Human immunodeficiency virus 1, PBMC, 72 h, Experiment #2, 1000 μM WR-1065, 72 h, read-out: Estimated percent inhibition). In addition, the inhibition at 100 µM in the series with HIV [6] (Human immunodeficiency virus 1, PBMC, 72 h, Experiment #2, 100 μM WR-1065, 72 h, read-out: Estimated percent inhibition) was 94.9%; in the series with HIV-1BZ-167 (Human immunodeficiency virus 1, 100 μM WR-1065, n=5), 92 ± 11%. In addition, the inhibition at 330 µM in the series on HIV [6] (Human immunodeficiency virus 1, PBMC, 72 h, Experiment #2, 330 μM WR-1065, 72 h, read-out: Estimated percent inhibition) was 94.7%. The inhibition at 5 µM in the series on HIV [6] (Human immunodeficiency virus 1, PBMC, 72 h, Experiment #3, 5 μM WR-1065, 72 h, read-out: Estimated percent inhibition) was 76.8%. For the same compound, in the series with HIV [6] (Human immunodeficiency virus 1, PBMC, 72 h, Experiment #3, 10 μM WR-1065, 72 h, read-out: Estimated percent inhibition), the inhibition at 10 µM is 98%. In addition, in the series on HIV [6] (Human immunodeficiency virus 1, PBMC, 72 h, Experiment #3, 33 μM WR-1065, 72 h, read-out: Estimated percent inhibition), the inhibition at 33 µM was 98.9%. The inhibition at 66 µM with HIV [6] (Human immunodeficiency virus 1, PBMC, 72 h, Experiment #3, 66 μM WR-1065, 72 h, read-out: Estimated percent inhibition) is 99.9%. In addition, the “suppression of HIV replication” value with HIV [6] (concentration of less than 100 μM) was more than 99.9%. For the same compound, the “duration of action (anti-HIV, cell culture)” value in the series with HIV [6] was “long duration of action”. In addition, the “intra-cellular concentration necessary to reduce HIV replication by ~100%” value in the series on HIV [9] is listed as approximately 50 picomoles/10^6 cells. The 14-day survival is less than 20% in the series on TK6 cells (continuous 50-100 μM WR-1065) and 70-80% in the series on TK6 cells (continuous 50-100 μM WR-1065, 10 mg/ml aminoguanidine added from day 4). Moreover, the HIV-1 growth inhibition in the series on HIV-1BZ-167 (103-206 μM WR-1065) is given as not below 94%. Besides, in the series on HIV-1BZ-167 (Human immunodeficiency virus 1, 26 μM WR-1065, mean SE, n=5), the inhibition at 26 µM is 65 ± 7.5%. In addition, the inhibition at 50 µM in the series with HIV-1BZ-167 (Human immunodeficiency virus 1, 50 μM WR-1065, n=5) turned out to be 83.2 ± 18.6%. In addition, the inhibition at 52 µM with HIV-1BZ-167 (Human immunodeficiency virus 1, 52 μM WR-1065, n=7) stood at 88.7 ± 5.5%. In addition, in the series with HIV-1BZ-167 (Human immunodeficiency virus 1, 103 μM WR-1065, n=8), the inhibition at 103 µM is 93.9 ± 3.1%. Further, in the series on HIV-1BZ-167 (Human immunodeficiency virus 1, dose-response 2.5-103.0 μM, mean±SE), the IC50 was 3100 ± 600 nM. Also, the “effect on antiretroviral activity of 0.8-3.0 μM AZT” value in the series on HIV-1BZ-167 (WR-1065 at 26 μM) is “did not inhibit”. In series [3] (setting [10]), the T1/2 is not below 2 h. The peak plasma level in series [3] (setting [10]) was approximately 100 µM. Also, the bioavailability entry in series [3] (setting [11]) is on record as “high”. Besides, the tissue distribution result in [3] (setting [11]) is recorded as “widespread”.
On to `Cc1cn([C@H]2C[C@H](N=[N+]=[N-])[C@@H](CO)O2)c(=O)[nH]c1=O` [AZT, Zidovudine, reference compound], for which the “HIV Viral P24” value in the series on HIV [6] (Experiment #1, 10 μM AZT, 72 h) was 0.13 pg/mL; in the series on HIV [6] (Experiment #2, 10 μM AZT, 72 h), 9.07 pg/mL; in the series with HIV [6] (Experiment #3, 10 μM AZT, 72 h), 2.9 pg/mL. Further, the inhibition at 10 µM in the series on HIV [6] (Human immunodeficiency virus 1, PBMC, 72 h, Experiment #1, 10 μM AZT, 72 h, read-out: Estimated percent inhibition) was approximately 100%; with HIV [6] (Human immunodeficiency virus 1, PBMC, 72 h, Experiment #2, 10 μM AZT, 72 h, read-out: Estimated percent inhibition), 94.9%; in the series with HIV [6] (Human immunodeficiency virus 1, PBMC, 72 h, Experiment #3, 10 μM AZT, 72 h, read-out: Estimated percent inhibition) it was approximately 100%. In addition, in the series with HIV-1BZ-167 (AZT 0.8, 3.0 and 5.0 μM), the “inhibition of virus replication” value is reported as 85-96%. The “dose for 50% reduction in HIV-1 replication, fold lower than that of WR-1065” value with HIV-1BZ-167 (AZT versus WR-1065) is on record as “about 1000 fold”. In the series with HIV-1BZ-167 (Human immunodeficiency virus 1, 7.75 μM, alone, mean±SD, n=4), the inhibition at 7.75 µM was determined as 96.7 ± 5.1%. Moreover, the IC50 in the series on HIV-1BZ-167 (Human immunodeficiency virus 1, dose-response 1.9-117.0 nM, mean±SE) is 3.5 ± 0.7 nM. For the same compound, in the series with PHA-blasts [5] (7.75 μM), the target cell survival is on record as 54±15%.
